Where a SMILES comes first, the peptide text is derived from it. Where no end group is shown, it is not given here. The star is where a group is joined. X2 = CC1(C)C(/C=C/C2=C(Oc3ccc(S(=O)(=O)O)cc3)C(=C/C=C3/N(CCCCCC(=O)NCCN4C(=O)CC(*)C4=O)c4ccc(S(=O)(=O)O)cc4C3(C)C)/CCC2)=[N+](CCCCS(=O)(=O)O)c2ccc(S(=O)(=O)[O-])cc21; X1 = CC1(C)C(/C=C/C=C/C=C/C=C2/N(CCCCCC(=O)NCCN3C(=O)CC(*)C3=O)c3ccc4ccccc4c3C2(C)C)=[N+](CCCCS(=O)(=O)[O-])c2ccc3ccccc3c21; ICG maleimide = indocyanine green maleimide

The conditions of data set [1]: residue X in AcWL-X-LL, relative to virtual glycine; cited from earlier work.
Data set [2] is described as follows: NIR fluorescence imaging of blood vessels and blood flow (ear, leg, blood samples) in mice. The class given is in vivo, mouse. As to conditions: for fluorescent signal in blood samples: blood collected 5-120 min after IV injection; for imaging of blood vessels in ear and leg: IV 100 μL of 40 μM, 5, 30, 60, 90, 120 min. Here is the method:
Adult female nude mice (Envigo), 20 g in body mass were used in the study. Fluorescent constructs were given as a single tail vein injection in amounts of 100 μL of 40 μM in PBS. Imaging of mouse ear and leg was performed at 5, 30, 60, 90 and 120 min after construct administration. At 5, 30, 60, 90 and 120 min after construct administration 5 μL of blood was withdrawn from tail (and mixed with 5 μL of anticoagulating solution to preserve blood) while animal was under anesthesia. Mice were euthanized immediately after last imaging point (120 min). Blood collected from all animals was deposited on the glass slide, dried and imaged. Imaging was performed using Novadaq clinical imaging instrument. Autofluorescence was established by imaging mouse with no injection of fluorescent constructs (the level of autofluorescence signal was insignificant compared to the signal after the constructs administration).

For data set [3] the following is noted: cited from earlier work.
Data set [4] has as its system 4T1 murine mammary carcinoma. As to the kind of experiment: Tumor targeting in mice bearing 4T1 tumors. It counts as in vivo, mouse. The settings on record: 20 μM, IV, 16 h. The procedure:
Adult female nude mice and female BALB/cAnNHsd mice (Envigo), 20-25 g in body mass were used in the study. Mouse mammary cancer 4T1 cells were subcutaneously implanted in the right flank (8×10^5 cells/0.1 mL/flank) of adult female BALB/cAnNHsd mice. Rat bladder cancer AY27 cells were subcutaneously implanted in the right flank (8×10^5 cells/0.1 mL/flank) of adult female nude mice. When tumors reached approximately 5-6 mm in diameter, single tail vein injection or single intraperitoneal injection of fluorophore-pHLIP® solutions in PBS were performed. Fluorescent constructs were used in amounts of 100 μL of 40 μM, or 100 μL of 20 μM, or 100 μL of 10 μM, or 100 μL of 5 μM. Imaging of mouse was performed at 16 hours after constructs administration. Skin was removed from the tumor site just before imaging while animal was under gas anesthesia, and mice were euthanized immediately after imaging. Tumor, kidney and liver were harvested, imaged and used for histopathological analysis. Imaging was performed using Stryker clinical imaging instrument. Autofluorescence was established by imaging mouse with no injection of fluorescent constructs (the level of autofluorescence signal was insignificant compared to the signal after the constructs administration).

The conditions of data set [5]: cited from earlier work. This is another data set of the same source.
The conditions of data set [6]: humans, high dose of 5 mg/kg of body weight; cited from earlier work.
The conditions of data set [7]: free ICG as used now; cited from earlier work.

For the molecule `N[C@@H](Cc1c[nH]c2ccccc12)C(=O)O` [Trp, Tryptophan], in data set [1], the “ΔGX^cor, solvation free energy of the side chain” value (“ΔGX^cor, solvation free energy” below) was “+3.24 kcal/mol”.

In the case of `N[C@@H](Cc1c[nH]cn1)C(=O)O` [His, Histidine], in data set [1], the “ΔGX^cor, solvation free energy” value was -4.94 kJ/mol.

With `N[C@@H](Cc1ccccc1)C(=O)O` [Phe, Phenylalanine], the “ΔGX^cor, solvation free energy” value in data set [1] is reported as “+2.86 kcal/mol”.

`N[C@@H](CC(=O)O)C(=O)O` [Asp, Aspartic acid]: in data set [1], the “ΔGX^cor, solvation free energy” value was -10.4 kJ/mol.

Take `CC[C@H](C)[C@H](NC(=O)[C@@H]1CCCN1C(=O)[C@H](CC(N)=O)NC(=O)[C@H](CCC(N)=O)NC(=O)[C@H](CCC(=O)O)NC(=O)[C@H](CSC1CC(=O)N(CCNC(=O)CCCCCN2/C(=C/C=C/C=C/C=C/C3=[N+](CCCCS(=O)(=O)[O-])c4ccc5ccccc5c4C3(C)C)C(C)(C)c3c2ccc2ccccc32)C1=O)NC(=O)[C@H](C)N)C(=O)N[C@@H](Cc1ccc(O)cc1)C(=O)N[C@@H](Cc1c[nH]c2ccccc12)C(=O)N[C@@H](C)C(=O)N[C@@H](CCCNC(=N)N)C(=O)N[C@@H](Cc1ccc(O)cc1)C(=O)N[C@@H](C)C(=O)N[C@@H](CC(N)=O)C(=O)N[C@@H](Cc1c[nH]c2ccccc12)C(=O)N[C@@H](CC(C)C)C(=O)N[C@@H](Cc1ccccc1)C(=O)N[C@H](C(=O)N[C@H](C(=O)N1CCC[C@H]1C(=O)N[C@@H](CC(C)C)C(=O)N[C@@H](CC(C)C)C(=O)N[C@@H](CC(C)C)C(=O)N[C@@H](CC(C)C)C(=O)N[C@@H](CC(N)=O)C(=O)N[C@@H](CC(C)C)C(=O)N[C@@H](C)C(=O)N[C@@H](CC(C)C)C(=O)N[C@@H](CC(C)C)C(=O)N[C@H](C(=O)N[C@@H](CC(=O)O)C(=O)N[C@@H](C)C(=O)N[C@@H](CC(=O)O)C(=O)N[C@@H](CCC(=O)O)C(=O)NCC(=O)N[C@H](C(=O)O)[C@@H](C)O)C(C)C)[C@@H](C)O)[C@@H](C)O` (some centres unmarked) [ICG-NpHLIP®] (H-AC(X1)EQNPIYWARYANWLFTTPLLLLNLALLVDADEGT-OH): the “fluorescent signal in blood samples” value in data set [2] is recorded as “significantly reduced signal”.

Regarding `C#CCNC(=O)CCCCC[N+]1=C(/C=C/C=C/C=C/C=C2\N(CCCCS(=O)(=O)[O-])c3ccc4ccccc4c3C2(C)C)C(C)(C)c2c1ccc1ccccc21` [ICG-alkyne], in data set [3], the Solubility result is listed as “DMSO, DMF, Acetonitrile, Methanol”.

Take `C[C@H](N)C(=O)O` [Ala, Alanine]: in data set [1], the “ΔGX^cor, solvation free energy” value is on record as “+0.65 kcal/mol”.

As to “IR800-WT: IR800 maleimide conjugated to Cys of WT pHLIP® peptide (SEQ ID NO: 444) (AC(IR800 maleimide)EQNPIYWARYADWLFTTPLLLLDLALLVDADEGT)”, in data set [2], the “imaging of blood vessels in ear and leg” value was “better in imaging of blood vessels, however not nearly as good as ICG-WT and ICG-Var3 pHLIP®s”.

`CC[C@H](C)[C@H](NC(=O)[C@@H]1CCCN1C(=O)[C@H](CC(N)=O)NC(=O)[C@H](CCC(N)=O)NC(=O)[C@H](CCC(=O)O)NC(=O)[C@H](CSC1CC(=O)N(CCNC(=O)CCCCCN2/C(=C/C=C/C=C/C=C/C3=[N+](CCCCS(=O)(=O)[O-])c4ccc5ccccc5c4C3(C)C)C(C)(C)c3c2ccc2ccccc32)C1=O)NC(=O)[C@H](C)N)C(=O)N[C@@H](Cc1ccc(O)cc1)C(=O)N[C@@H](Cc1c[nH]c2ccccc12)C(=O)N[C@@H](C)C(=O)N[C@@H](CCCNC(=N)N)C(=O)N[C@@H](Cc1ccc(O)cc1)C(=O)N[C@@H](C)C(=O)N[C@@H](CC(=O)O)C(=O)N[C@@H](Cc1c[nH]c2ccccc12)C(=O)N[C@@H](CC(C)C)C(=O)N[C@@H](Cc1ccccc1)C(=O)N[C@H](C(=O)N[C@H](C(=O)N1CCC[C@H]1C(=O)N[C@@H](CC(C)C)C(=O)N[C@@H](CC(C)C)C(=O)N[C@@H](CC(C)C)C(=O)N[C@@H](CC(C)C)C(=O)N[C@@H](CC(=O)O)C(=O)N[C@@H](CC(C)C)C(=O)N[C@@H](C)C(=O)N[C@@H](CC(C)C)C(=O)N[C@@H](CC(C)C)C(=O)N[C@H](C(=O)N[C@@H](CC(=O)O)C(=O)N[C@@H](C)C(=O)N[C@@H](CC(=O)O)C(=O)N[C@@H](CCC(=O)O)C(=O)NCC(=O)N[C@H](C(=O)O)[C@@H](C)O)C(C)C)[C@@H](C)O)[C@@H](C)O` (some centres unmarked) [ICG-WT pHLIP®]: in data set [2], the “fluorescent signal in blood samples” value is “persistence of strong fluorescent signal within 2 hours”.

For `N=C(N)NCCC[C@H](N)C(=O)O` [Arg, Arginine], the “ΔGX^cor, solvation free energy” value in data set [1] was -2.76 kJ/mol.

As to `N[C@@H](Cc1ccc(O)cc1)C(=O)O` [Tyr, Tyrosine], the “ΔGX^cor, solvation free energy” value in data set [1] was “+1.86 kcal/mol”.

Regarding `CSCC[C@H](N)C(=O)O` [Met, Methionine], the “ΔGX^cor, solvation free energy” value in data set [1] is reported as “+1.82 kcal/mol”.

For the molecule `NCCCC[C@H](N)C(=O)O` [Lys, Lysine], the “ΔGX^cor, solvation free energy” value in data set [1] was -6.9 kJ/mol.

Regarding `CC(C)C[C@H](NC(=O)[C@H](Cc1ccc(O)cc1)NC(=O)[C@H](C)NC(=O)[C@H](CCCNC(=N)N)NC(=O)[C@H](Cc1c[nH]c2ccccc12)NC(=O)[C@@H]1CCCN1C(=O)[C@H](CC(N)=O)NC(=O)[C@H](CCC(N)=O)NC(=O)[C@H](CC(=O)O)NC(=O)[C@H](CC(=O)O)NC(=O)[C@H](CSC1CC(=O)N(CCNC(=O)CCCCCN2/C(=C/C=C3\CCCC(/C=C/C4=[N+](CCCCS(=O)(=O)O)c5ccc(S(=O)(=O)[O-])cc5C4(C)C)=C3Oc3ccc(S(=O)(=O)O)cc3)C(C)(C)c3cc(S(=O)(=O)O)ccc32)C1=O)NC(=O)[C@H](C)N)C(=O)N[C@@H](CC(=O)O)C(=O)N[C@@H](CC(C)C)C(=O)N[C@@H](CC(C)C)C(=O)N[C@@H](Cc1ccccc1)C(=O)N1CCC[C@H]1C(=O)N[C@H](C(=O)N[C@@H](CC(=O)O)C(=O)N[C@H](C(=O)N[C@@H](CC(C)C)C(=O)N[C@@H](CC(C)C)C(=O)N[C@@H](CC(C)C)C(=O)N[C@@H](CC(=O)O)C(=O)N[C@@H](CC(C)C)C(=O)N[C@@H](CC(C)C)C(=O)N[C@@H](Cc1c[nH]c2ccccc12)C(=O)N[C@@H](C)C(=O)O)[C@@H](C)O)[C@@H](C)O` (some centres unmarked) [IR800-Var3] (H-AC(X2)DDQNPWRAYLDLLFPTDTLLLDLLWA-OH), in data set [4], the organ of clearance result is recorded as “cleared by the kidney”.

On to `CC(C)[C@H](N)C(=O)O` [Val, Valine], for which the “ΔGX^cor, solvation free energy” value in data set [1] is on record as “+1.61 kcal/mol”.

In the case of `O=C(O)[C@@H]1CCCN1` [Pro, Proline], the “ΔGX^cor, solvation free energy” value in data set [1] was “+1.01 kcal/mol”.

Regarding `NC(=O)C[C@H](N)C(=O)O` [Asn, Asparagine], the “ΔGX^cor, solvation free energy” value in data set [1] is recorded as “+0.30 kcal/mol”.

On to `C[C@@H](O)[C@H](N)C(=O)O` [Thr, Threonine], for which, in data set [1], the “ΔGX^cor, solvation free energy” value was “+0.90 kcal/mol”.

As to “ICG-Hum pHLIP®: ICG maleimide conjugated to Cys of Hum pHLIP® GCDNNEGFFATLGGEIPLWSDVVLAIEG (SEQ ID NO: 446) (GC(ICG maleimide)DNNEGFFATLGGEIPLWSDVVLAIEG)”, in data set [2], the “imaging of blood vessels in ear and leg” value was “slow in reaching the best imagibility condition and was fast in decaying”.

Consider `N[C@@H](CO)C(=O)O` [Ser, Serine], for which the “ΔGX^cor, solvation free energy” value in data set [1] is reported as “+0.69 kcal/mol”.

`CC1(C)C(/C=C/C=C/C=C/C=C2\N(CCCCS(=O)(=O)[O-])c3ccc4ccccc4c3C2(C)C)=[N+](CCCCS(=O)(=O)[O-])c2ccc3ccccc3c21.[Na+]` [ICG, indocyanine green]: in data set [5] (after intravenous injection), the “time of appearance unconjugated in the bile” value was “about 8 min”. Also, in data set [5] (following intravenous injection), the half-life time is recorded as 2.5 min. Moreover, the “time to reach the nearest draining lymph node” value in data set [5] (injected outside blood vessels) is no more than 15 min. Besides, in data set [6], the toxic effects result was “No significant toxic effects”. Moreover, in data set [7], the imaging time was 2 to 5 min.

Turning to `N[C@@H](CCC(=O)O)C(=O)O` [Glu, Glutamic acid], the “ΔGX^cor, solvation free energy” value in data set [1] is -10.4 kJ/mol.

Values taken from patent publication US11738096B2, “Method of detecting diseased or damaged tissue with a pH-triggered polypeptide fluorophore composition” (University of Rhode Island Board of Trustees, priority 2016, dated 2023).
